Measurements reported in paper PMC6060094, “Structural determinants of the catalytic mechanism of Plasmodium CCT, a key enzyme of malaria lipid biosynthesis” (Scientific Reports, 2018).

What was measured:
PfCCT(581–775) [1] = molecular target: T1, PfCCT(581–775) (Plasmodium falciparum, UniProt P49587, DEL194-211); assay: Saturation Transfer Difference NMR (STD-NMR) ligand binding; conditions: ligand 1 mM; 50 µM PfCCT(581-775), 283 K
T1 construct: The PfCCT(581–775) construct was obtained using previously described PfCCT(528–795); 6xHis (TEV-cleavable) (N, cleaved yes); made in house; host or cells: E. coli BL21 (DE3)
Method: In order to provide structural insights into the mechanism of action of PfCCT, we set out to crystallize the constitutively active C-terminal catalytic domain of PfCCT. Several constructs were tested and our attempts were successful only in case of PfCCT(581–775) that corresponds to the exact region visible in the crystal structure of RnCCT (PDB: 3HL4)[20] (Fig. 1a). […] (Table 1 and Supplementary Fig. S1). We further assessed the functionality of PfCCT(581–775) by characterizing its substrate and product binding ability. […] Saturation Transfer Difference Nuclear Magnetic Resonance (STD-NMR) experiments indicated STD signal of CTP, ChoP and CDPCho bound to PfCCT(581–775) at 1 mM, 4 mM and 1 mM concentrations, respectively (Supplementary Fig. S1). This latter result is consistent with previously observed unusually low ChoP affinity of PfCCT[16]. We concluded that PfCCT(581–775) is compatible with substrate and product recognition and may be amenable to structural studies provided that its compromised enzymatic function is taken into account in structure-based interpretations. It is likely that the drop of PfCCT(581–775) enzyme activity is due to the elimination of the C-terminal flanking part as similarly located truncations in the RnCCT catalytic domain also led to severe loss of activity[28],[29]. […]
Kinetic data are fitted with the Michaelis–Menten equation. […] Values of the measured kinetic and thermodynamic parameters and their errors […]
(black) of 50 µM PfCCT(581-775) in 20 mM Tris/HCl pH 7.5, 150 mM NaCl and 2 mM EtSH are shown in presence of c) 1 mM CTP, d) 4 mM ChoP and e) 1 mM CDPCho. […] The 1D 1H STD-NMR spectra were recorded on a Bruker 500 MHz instrument at 283 K with 256 scans and selective saturation of protein resonances at 0.922 ppm using a series of Gaussian shaped pulses (20 ms, 1 ms delay between the pulses). […] All 1D 1H NMR spectra were recorded […]

PfCCT(581–775) [2] = molecular target: T1, PfCCT(581–775); assay: Equilibrium ligand binding by isothermal titration calorimetry (ITC); conditions: 20 °C
Method: (§1) Calorimetric measurements were performed on an ITC 200 titration calorimeter (Malvern) at 20 °C. The protein samples were dialyzed against 20 mM HEPES/NaOH pH 7.5, 100 mM NaCl, including 0.5 mM Tris(2-carboxyethyl)phosphine (TCEP) as reducing agent. CTP and CDPCho were diluted from a concentrated stock into the dialysis buffer with subsequent pH adjustment. Concentration of the titrating nucleotide ligands were determined using molar extinction coefficients 9000 M^−1 cm^−1 at 271 nm for CTP and 5000 M^−1 cm^−1 at 260 nm for CDPCho[16]. In the experimental setup, the cell of the instrument was filled with protein and the syringe with the ligand. The titrations typically included 19 steps of injection with 2 μl of ligand per injection spaced 180 s apart from each other, with the injection syringe rotating at 750 r.p.m. The data were analyzed using MICROCAL ORIGIN software following the directions of the manufacturer. To account for dilution, the invariant integrated heat value of the last 3–5 data points was subtracted from all data points. The one set of independent sites binding model was applied to data for determination of thermodynamic parameters: dissociation constant (Kd), stoichiometry (N), enthalpy (ΔH) and entropy (ΔS). Due to the low apparent affinity, the N value was fixed to a constant value of 1 in CTP titrations to PfCCT(528–795) K663A according to the low c value ITC data analysis protocol[40],[41]. For CTP and CDPCho titrations of PfCCT(528–795) K663A, and CTP titrations of T761A and T762A variants of PfCCT(528-795), mean and SD from two independent experiments are provided, whereas for CDPCho titrations of PfCCT(581–775) and PfCCT(528-795) mean and SD from three independent experiments are provided. For PfCCT(528-795) (Y626F/Q636A), errors of model fit to data of a single ligand binding experiment are given.

PfCCT(528–795) K663A = PfCCT(528–795) K663A (Plasmodium falciparum, UniProt Q8IEE9, DEL720-737/K663A); assay: as above; conditions: 20 °C
Method: as §1

PfCCT(528–795) = molecular target: T2, PfCCT(528–795) (Plasmodium falciparum, UniProt P49587, DEL194-211); assay: as above; conditions: 20 °C
T2 construct: previously described PfCCT(528–795) lacking the lysine-rich Plasmodium specific loop (720–737); His-tag; made in house
Method: as §1

[3] = molecular target: PfCCT(528–795) Y626F/Q636A (Plasmodium falciparum, UniProt Q8IEE9, DEL720-737/Q636A/Y626F); assay: as above; conditions: 20 °C, pH 7.5, single experiment, errors of model fit
Method: as §1

Sequence of PfCCT(528–795) K663A (Q8IEE9 528-795, stated change not applied): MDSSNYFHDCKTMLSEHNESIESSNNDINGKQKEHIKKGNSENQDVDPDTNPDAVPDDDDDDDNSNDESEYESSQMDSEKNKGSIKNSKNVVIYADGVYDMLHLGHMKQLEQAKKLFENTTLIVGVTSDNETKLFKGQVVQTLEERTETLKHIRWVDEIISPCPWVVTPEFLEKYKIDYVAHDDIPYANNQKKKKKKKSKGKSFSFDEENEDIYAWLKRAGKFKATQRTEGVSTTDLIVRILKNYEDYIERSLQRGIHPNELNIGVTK
Sequence of PfCCT(528–795) Y626F/Q636A (Q8IEE9 528-795, stated change not applied): as above

SMILES: C[N+](C)(C)CCOP(=O)(O)OP(=O)([O-])OC[C@H]1O[C@@H](n2ccc(N)nc2=O)[C@H](O)[C@@H]1O [CDPCho, CDP-choline]
- STD-NMR signal of ligand bound to enzyme (PfCCT(581–775) [1]): STD signal
- ΔGCDP-Cho (PfCCT(581–775) [2]; pH 7.5): -5.8 ± 0.1 kcal/mol
- ΔHCDP-Cho (PfCCT(581–775) [2]; pH 7.5): -10.5 ± 0.3 kcal/mol
- −TΔSCDP-Cho (PfCCT(581–775) [2]; pH 7.5): 4.7 ± 0.4 kcal/mol
- Kd (PfCCT(581–775) [2]; pH 7.5, read-out: Kd,CDP-Cho): 47 ± 5 µM
- ΔGCDP-Cho (PfCCT(528–795) K663A; pH 7.5): -5.0 ± 1.4 kcal/mol
- ΔHCDP-Cho (PfCCT(528–795) K663A; pH 7.5): -11.4 ± 1.5 kcal/mol
- −TΔSCDP-Cho (PfCCT(528–795) K663A; pH 7.5): 6.5 ± 1.6 kcal/mol
- Kd (PfCCT(528–795) K663A; pH 7.5, read-out: Kd,CDP-Cho): 210 ± 60 µM
- ΔGCDP-Cho (PfCCT(528–795); pH 7.5): -6.0 ± 0.2 kcal/mol
- ΔHCDP-Cho (PfCCT(528–795); pH 7.5): -16.1 ± 0.1 kcal/mol
- −TΔSCDP-Cho (PfCCT(528–795); pH 7.5): 10.1 ± 0.1 kcal/mol
- Kd (PfCCT(528–795); pH 7.5, read-out: Kd,CDP-Cho): 34 ± 1 µM
- ΔGCDP-Cho [3]: -6.2 ± 0.1 kcal/mol
- ΔHCDP-Cho [3]: -12.0 ± 0.2 kcal/mol
- −TΔSCDP-Cho [3]: 5.8 ± 0.1 kcal/mol
- Kd ([3]; read-out: Kd,CDP-Cho): 22.2 ± 0.2 µM
